Article PMC7022378, “Structural Analyses on the Deamidation of N-Terminal Asn in the Human N-Degron Pathway” (Biomolecules, 2020)

How the values were obtained:
NTAN1 (wild-type) = molecular target: T1, NTAN1 (wild-type) (Homo sapiens, UniProt Q96AB6); experiment: In vitro deamidation assay quantified by LC-MS, wild-type NTAN1; type: biochemical; conditions: 200 mM NaCl, 10 mM HEPES-NaOH (pH 7.0); for Deamidation activity on NXAAR peptides: 100 μM peptide, 37 °C, 1-20 min, three independent experiments; for Deamidation with 0.16 μM NTAN1: 0.16 μM NTAN1, 37 °C
T1 construct: The gene for full-length NTAN1 was cloned into pET-21a(+); made in house; host or cells: E. coli Rosetta 2(DE3)
T1 sequence (Q96AB6 1-310): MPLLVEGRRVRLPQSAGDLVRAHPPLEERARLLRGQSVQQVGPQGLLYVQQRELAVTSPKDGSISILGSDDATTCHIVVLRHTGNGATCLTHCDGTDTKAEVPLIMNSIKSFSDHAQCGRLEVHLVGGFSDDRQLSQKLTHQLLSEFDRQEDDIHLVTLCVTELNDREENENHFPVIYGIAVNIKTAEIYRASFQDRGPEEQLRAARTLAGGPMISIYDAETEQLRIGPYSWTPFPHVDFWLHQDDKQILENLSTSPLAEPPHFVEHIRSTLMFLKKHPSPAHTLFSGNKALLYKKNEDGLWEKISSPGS
Description: We synthesized codon-optimized NTAN1 gene of which sequence information was provided by Georgiou et al. for protein expression in Escherichia coli. The gene for full-length NTAN1 was cloned into pET-21a(+) (Novagen, Darmstadt, Germany) between Nde1 and Xho1 restriction sites to have C-terminal hexahistidine tag. NTAN1 was overexpressed in the Rosetta 2(DE3), E. coli strain (Novagen, Darmstadt, Germany). The transformed cells were grown in Luria-Bertani media containing ampicillin at 37 °C until the optical density at 600 nm reached 0.5 and protein expression was induced by 0.5 mM isopropyl β-D-1-thiogalactopyranoside. The cells were shake-incubated for additional for 16 h at 18 °C and harvested by centrifugation at 6000 × g for 10 min (Figure S1). The harvested cells were resuspended in a buffer containing 500 mM NaCl, 20 mM Tris-HCl (pH 7.5), 35 mM imidazole, and 1 mM phenylmethylsulfonyl fluoride and subsequently lysed by sonication. Lysed cells were centrifuged at 35,000 × g for 1 h. The resultant supernatant was filtered with 0.45 μm filter device (Sartorius, Göttingen, Germany) and loaded onto a 5-mL HiTrap Chelating HP column (GE Healthcare, Chicago, IL, USA) which had been pre-charged with Ni^2+ and equilibrated with a buffer containing 500 mM NaCl, 20 mM Tris-HCl (pH 7.5), and 35 mM imidazole. After nonspecifically bound proteins were eluted, the retained proteins were eluted by addition of an increasing gradient of a buffer containing 500 mM NaCl, 20 mM Tris-HCl (pH 7.5), and 1 M imidazole. The proteins were loaded onto a HiPrep Desalting 26/10 column (GE Healthcare, Chicago, IL, USA) and eluted with a buffer containing 50 mM NaCl and 20 mM Tris-HCl (pH 7.5) The eluates were loaded onto a HiTrap 5-mL Q HP column (GE Healthcare, Chicago, IL, USA) which had been equilibrated with a buffer containing 50 mM NaCl and 20 mM Tris-HCl (pH 7.5). After nonspecifically bound proteins were eluted, the retained proteins were eluted with addition of increasing gradient of a buffer containing 1 M NaCl and 20 mM Tris-HCl (pH 7.5). Finally, the proteins were concentrated, loaded onto a HiLoad 16/600 Superdex 200 pg column (GE Healthcare, Chicago, IL, USA), and eluted with a buffer containing 200 mM NaCl and 10 mM HEPES-NaOH (pH 7.0). Purity of the protein fractions was checked by sodium dodecyl sulfate-polyacrylamide gel electrophoresis after each purification step.
Peptides with Nt-Asn which mimic potential substrates of NTAN1 were synthesized: NRA, NRAA, NRAAA, NRQVA, NRQVAA, NRQVAAA, NFAAR, NLAAR, NRAAR, NAAAR, NNAAR, NPAAR, NGAAR, and NDAAR. Non-Nt-Asn peptides, QRAAA and VRAAA, were also synthesized. NTAN1 (at concentrations of 0.5 μM, 0.16 μM, or 0.04 μM) and the peptides (at a concentration of 100 μM) were mixed and incubated at 37 °C in a buffer containing 200 mM NaCl and 10 mM HEPES-NaOH (pH 7.0). The reactants sampled at various incubation time points (of 1, 2, 5, 10, and 20 min) were heat-inactivated at 95 °C for 10 min to stop further reaction. Subsequently, the samples were centrifuged at 20,000 × g and diluted 1/50 times with double-deionized water (DW) for liquid chromatography-mass spectrometry (LC-MS) analysis. The deamidation coefficient of peptides catalyzed by NTAN1 was assessed by the slope of exponential curve drawn from the concentration of the substrate over incubation time.
The peptides were quantified by an LC-MS system (1260 Infinity/6430 Triple Quad, Agilent Technologies) equipped with a binary pump (G1312B), a thermostated column compartment (G1316C), a thermostat (G1330B), and an autosampler (G1367E). Chromatographic separation was carried out by injecting an aliquot (2 µL) of analytical sample into a Kinetex C18 column (2.6 μm, 100 Å, 100 × 4.6 mm; Phenomenex, Torrance, CA, USA) with a C18 guard column (4 × 2.0 mm; Phenomenex, Torrance, CA, USA). The mobile phase consisted of acetonitrile and DW (30:70, v/v) with 0.2% (v/v) formic acid. […]

[1] = molecular target: T2, N-terminal asparagine amidohydrolase 1 (NTAN1) C75S mutant (human, UniProt Q96AB6 1-310, C75S); experiment: SPR; NTAN1 C75S amine-coupled to a CM5 chip (3000 RU), Biacore T200; peptides at 1.95-62.50 μM injected for 120 s, 30 μL/min; 150 mM NaCl, 10 mM HEPES-NaOH pH 7.2, 0.1 mM TCEP, 0.001% polysorbate 20; 1:1 Langmuir model; conditions: both partners purified
T2 construct: N-terminal asparagine amidohydrolase 1 (NTAN1), human, full length, 310 residues; codon-optimized synthetic gene in pET-21a(+); catalytic Cys75 changed to Ser; C75S is not in the list of mutants in section 2.2; No step that cleaves the tag is described; source: E. coli Rosetta 2(DE3), purified as for NTAN1 (Ni2+ chelating, Q anion exchange, Superdex 200)
T2 sequence (looked up): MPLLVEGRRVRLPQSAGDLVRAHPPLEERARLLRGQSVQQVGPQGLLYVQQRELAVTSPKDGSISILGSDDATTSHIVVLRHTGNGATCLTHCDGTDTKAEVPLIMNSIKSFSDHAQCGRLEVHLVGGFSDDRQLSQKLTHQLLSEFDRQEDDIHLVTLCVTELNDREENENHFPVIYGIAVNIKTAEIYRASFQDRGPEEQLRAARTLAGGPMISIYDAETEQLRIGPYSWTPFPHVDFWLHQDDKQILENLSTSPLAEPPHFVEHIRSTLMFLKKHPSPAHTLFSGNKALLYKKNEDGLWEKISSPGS

[2] = molecular target: T2, N-terminal asparagine amidohydrolase 1 …; experiment: crystal structure; crystals of NTAN1 C75S soaked in reservoir solution with 10 mM synthetic peptide for 16 hr; two molecules in the asymmetric unit; conditions: both partners purified
[3] = molecular target: T3, NTAN1 S254A mutant (human) (UniProt Q96AB6)
T3 sequence: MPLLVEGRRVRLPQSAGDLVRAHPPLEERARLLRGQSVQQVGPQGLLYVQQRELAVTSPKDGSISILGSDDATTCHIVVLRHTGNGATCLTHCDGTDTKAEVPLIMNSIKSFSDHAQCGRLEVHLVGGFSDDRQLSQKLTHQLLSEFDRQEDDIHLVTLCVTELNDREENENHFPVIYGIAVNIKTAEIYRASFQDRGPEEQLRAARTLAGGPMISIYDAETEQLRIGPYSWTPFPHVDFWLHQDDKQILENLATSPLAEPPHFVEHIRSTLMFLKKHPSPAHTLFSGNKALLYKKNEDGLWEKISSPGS

[4] = 0.5 μM NTAN1 (Figure 2d; NNAAR also at 0.04 μM, Figure 2c)

Molecule: NDAAR [NXAAR substrate peptide, second-position Asp]
- Deamidation activity on NXAAR peptides (NTAN1 (wild-type); [4]): low deamidation activities

Molecule: NFAAR [NXAAR substrate pentapeptide, second-position Phe]
- Deamidation activity on NXAAR peptides (NTAN1 (wild-type); 0.04 μM NTAN1 (Figure 2c)): most efficiently deamidated

Molecule: NGAAR [NXAAR substrate peptide, second-position Gly]
- Deamidation activity on NXAAR peptides (NTAN1 (wild-type); [4]): low deamidation activities

Molecule: NLAAR [NXAAR substrate pentapeptide, second-position Leu]
- Deamidation activity on NXAAR peptides (NTAN1 (wild-type); 0.04 μM NTAN1 (Figure 2c)): most efficiently deamidated

Molecule: NNAAR [NXAAR substrate peptide, second-position Asn]
- Deamidation activity on NXAAR peptides (NTAN1 (wild-type); [4]): low deamidation activities

Molecule: NPAAR [NXAAR substrate peptide, second-position Pro]
- Deamidation activity on NXAAR peptides (NTAN1 (wild-type); [4]): low deamidation activities

Molecule: NRAAR [NXAAR substrate peptide, second-position Arg]
- Deamidation activity on NXAAR peptides (NTAN1 (wild-type); 0.04 μM NTAN1 (Figure 2c)): moderate deamidation activity

Molecule: NRQVA [synthesized modified Nt-Asn peptide, model substrate of NTAN1]
- Deamidation with 0.16 μM NTAN1 (NTAN1 (wild-type)): deamidated too rapidly

Molecule: NRQVAA [synthesized modified Nt-Asn peptide, model substrate of NTAN1]
- Deamidation with 0.16 μM NTAN1 (NTAN1 (wild-type)): deamidated too rapidly

Molecule: NRQVAAA [synthesized modified Nt-Asn peptide, model substrate of NTAN1]
- Deamidation with 0.16 μM NTAN1 (NTAN1 (wild-type)): deamidated too rapidly

B1: NLAAR peptide (peptide)
peptide: NLAAR
notes: model substrate peptide with N-terminal Asn; also called NLAAR pentapeptide; source: synthetic peptide
- Kd [1]: 26.8 nM

B2: NAAAR peptide (peptide)
peptide: NAAAR
notes: model substrate peptide with N-terminal Asn; source: synthetic peptide
- Kd [1]: 4670 nM

B3: NFAAR peptide (peptide)
peptide: NFAAR
notes: model substrate peptide with N-terminal Asn; also called NFAAR pentapeptide; source: synthetic peptide
- binding result [2]: binds

Molecule: NRAAA [NRAAA peptide]
- in vitro deamidation of the NRAAA peptide, LC-MS, deamidation rate against wild-type NTAN1 (fold lower than wild type) [3]: 3
